Entries after “also recorded” stand apart in the source; their conditions may differ. Like-named read-outs stand apart in the source and are kept apart here. Where no end group is shown, it is not given here. [ ]: non-standard residue; d: D form. Cha = N[C@@H](CC1CCCCC1)C(=O)O
How the values were obtained:
MDM2 [1] = target: T1, MDM2 (Homo sapiens, UniProt Q00987); assay: Kd MDM2 (nM)
Description: Table printed on a drawing sheet, Figure 2B
Head of the field: Kd MDM2 (nM)
The patent's description of the figure: FIGS. 2A-2F: Rapid combinatorial mapping of pDI (6) key binding residues and affinity selection of potent non-canonical inhibitors of ^25-109MDM2 and C-CA proteins. FIG. 2A) Combinatorial mapping of pDI (6) binding hotspots, library design. Represented are 6's randomized residues using L-configured (circles) natural amino acids. FIG. 2B) Affinity selected sequences from Library 1 and 2 at different stringencies (sequences 1 to 9) were validated after resynthesis and biotinylation or acetylation (peptides 1a to 6a and 7b to 9b) using bio-layer interferometry (BLI). In bold italic are represented randomized residues, and those that were varied compared to sequence 6. FIG. 2C) Expanding linear inhibitor hotspots to non-canonical amino acids. Library 3 was designed around 6 while Library 4 was designed around CAI (37) inhibitor. Depicted are randomized residues using non-canonical amino acids (abbreviations for each monomer are indicated in bold). FIG. 2D) Affinity selection from Library 3 at higher stringency using 6 as a soluble competitive inhibitor. […]
First copying reader's note: Randomized residues are printed in italic (bold or grey); this styling is not kept in the grid.
Where the first naming reader finds the target: head: Kd MDM2 (nM)

SUMO-25-109 MDM2 [2] = target: T2, SUMO-25-109 MDM2 (Homo sapiens, UniProt Q00987); assay: BLI in solution competition assay; type: binding; settings: for binding to MDM2 (in words): acetylated peptides or mini-proteins, BLI
Protocol: Calibration Curve: Streptavidin (SA) sensors were soaked in competition buffer (PBS supplemented with 0.05% Tween-20, and L-arginine pH 7.5) for 10 minutes at 30° C. […] The thus obtained biotinylated 63a (0.5 μM in competition buffer) was loaded on the SA sensor for 10 minutes at 30° C. and 1000 rpm. […] A calibration curve corresponding to binding response at equilibrium (in nm)=f(free [MDM2] in nM) was generated using GraphPad Prism 6 software using non-linear regression analysis (see FIG. 5).
Meanwhile, SA sensors were soaked in competition buffer for 10 minutes at 30° C. […] Based on the binding (nm) values, the concentration of “free” MDM2 was interpolated for each sample using the calibration curve. […] The following equation was used to generate fitted curves.

SJSA-1 cells [3] = assay: Western blot analysis of p53 activation (MDM2, p21); type: cell-based; settings: 10 μM, 12 hours
Protocol: SJSA-1 and K-562 cells were seeded in 6 well plates at a cell density of 350*10^3 cells/well in RPMI-1640 media supplemented with 10% serum and 1% Pen-Strep and incubated overnight at 37° C. and 5% CO2. The next day cells were treated with peptides and controls at 10 μM for 12 hours. Then cells were harvested and their pellets washed (2×) with PBS and lysed in 100 μL of RIPA buffer supplemented with Roche protease inhibitor cocktail on ice for 30 minutes. The lysates were clarified by brief centrifugation at 4° C. and total protein concentration was determined using the Bio-Rad DC protein assay. Aliquots of the cell lysates were run on 12% Tris-Glycine polyacrylamide gels (Invitrogen). After transfer using Trans-Blot Turbo Transfer system (Biorad), the membrane was blocked at room temperature for 2 hours with LI-COR blocking buffer. The membrane was cut in three and each part was incubated respectively with anti-MDM2 (mouse, SMP14: sc-965, Santa Cruz Biotechnology), anti-p21 (mouse, F-5: sc-6246, Santa Cruz Biotechnology) and anti-GAPDH (rabbit, GAPDH (D16H11) XP®, Cell Signaling Technology) antibodies in TBST overnight at 4° C. The membranes were washed and incubated with the appropriate secondary antibodies in TBST for 1 h at room temperature, washed again, then imaged with the LI-COR Odyssey infrared imaging system (see FIGS. 103-105).

MCF-7 cells = assay: Cell viability assay (MTS); type: cell-based; settings: MCF-7 cells (MDM2 and MDMX overexpressing), 72 hours
Protocol: (§1) SJSA-1, K-562 and MCF-7 cells were plated in 96-well plates in RPMI-1640 containing 10% FBS and 1% Pen-Strep and the next day were treated with the indicated concentrations of peptide or vehicle control. Peptide stocks were diluted into RPMI-1640 containing 10% FBS and 1% Pen-Strep to achieve 2× working individual stock solutions that were thoroughly mixed then diluted into the treatment wells. Cell viability was assayed after 72 hours by addition of CellTiter 96® AQueous One Solution Cell Proliferation reagent (MTS). All assays were performed in triplicate, and data was normalized to vehicle treated control and analyzed using Prism software (GraphPad Software).

K-562 cells = assay: Cell viability assay (MTS); type: cell-based; settings: K-562 p53-null cells, 72 hours
Protocol: as §1

SJSA-1 cells [4] = assay: Cell viability assay (MTS); type: cell-based; settings: 72 hours
Protocol: as §1

MDM2 [5] = target: T1, MDM2; assay: HPSEC affinity selection under increasing stringency (EIC peak area); type: binding; settings: usual stringency vs 100 μM of 6 and MDM2 lowered to […]
Protocol: SEC conditions: unless stated otherwise, high performance size exclusion column BIO-SEC-3, 7.8×150 mm, 3 μm particle size and 100 Å pore size was used. 100 μL of binding mixture containing peptides or peptide libraries and protein target was isocratically eluted in buffered mobile phase (25 mM Tris, 50 mM NaCl, pH 7.5, with or without L-arginine supplementation) at 1 mL/min flow rate for 15 minutes (typical backpressure ˜80-90 bars for a brand new column). Generally, mobile phase is also used as the binding buffer for affinity selection experiments, and systematically before each experiment a blank injection is performed consisting in a protein only injection. During affinity selection experiments the breakthrough fraction (protein fraction) was monitored by UV and collected. The latter contained the protein-binder complexes which were dissociated using 0.2% formic acid before characterization using LC-MS or LC-MS/MS analysis.

SUMO-25-109 MDM2 [6] = target: T2, SUMO-25-109 MDM2; type: binding; settings: biotinylated peptides, BLI

“Ac-LTYEHYWAQLTSK-NH2 [SEQ ID NO: 67 | 8b]” was tested, and the Kd (MDM2 [1]) was 2700 nM.
“Bio-(PEG)4- Leu Thr F2f Glu His Tyr Hexa Ala Gln Cba Thr Ser Lys -NH2 [(SEQ ID NO: 11) | 10a]” was tested, and the Kd (MDMX) was 26 nM.
“Bio-(PEG)4- Leu Thr F2f Glu His Tyr Trp Ala Gln Cba Thr Ser Lys -NH2 [(SEQ ID NO: 12) | 11a]” showed a Kd (MDMX) of 33 nM.
In the case of “Bio-(PEG)4- Leu Thr Phe Glu His Tyr Trp Ala Gln Leu Thr Ser Lys -NH2 [(SEQ ID NO: 8) | 6a]”, the Kd (MDMX) is reported as 83 nM.
For KAWYAN(CF3f)EKLLR [peptide 53], the “affinity for MDM2 lower than 54b” value (SUMO-25-109 MDM2 [2]; label free approach, relative to 54b) was “about 20 fold”.
Work on KAWYAN[Cha]EKLLR [peptide 45] yielded a Kd (SUMO-25-109 MDM2 [2]; in solution competition, acetylated peptide or mini-protein, fitted titration curve) of 6.1 nM.
With “LT(F2f)(Dap)EYWAQ(Cba)(Dap)SAA [peptide 11b-S1]” the “upregulation of MDM2 and p21” value (SJSA-1 cells [3]) was “upregulated MDM2 and P21 markers; also recorded: upregulated p53 gene products p21 and MDM2”, the “binding to MDM2 (in words)” value (SUMO-25-109 MDM2 [2]; in solution competition) was “low nanomolar affinity” and the cell viability (MCF-7 cells) was “lowered viability for MCF-7 cells”. The cell viability (K-562 cells) was “did not significantly lower K-562 viability” and the “cell killing / viability” value (SJSA-1 cells [4]) was “cell-killing properties; also recorded: killed SJSA-1 cells”.
In the case of “LT(F2f)(R8)EFWAQ(Cba)(S5)SAA [peptide 11b-M]”, the “upregulation of MDM2 and p21” value (SJSA-1 cells [3]) is reported as “upregulated p21 and MDM2”, the “binding to MDM2 (in words)” value (SUMO-25-109 MDM2 [2]; in solution competition) is reported as “low nanomolar affinity” and the “cell killing / viability” value (SJSA-1 cells [4]) is reported as “cell-killing properties”.
In the case of “LT(F2f)(R8)EY(Hexa)AQ(Cba)(S5)SAA [peptide 10b-M]”, the “upregulation of MDM2 and p21” value (SJSA-1 cells [3]) is reported as “upregulated MDM2 and P21 markers”, the “binding to MDM2 (in words)” value (SUMO-25-109 MDM2 [2]; in solution competition) is reported as “low nanomolar affinity” and the cell viability (MCF-7 cells) is reported as “lowered viability for MCF-7 cells”. The cell viability (K-562 cells) was “did not significantly lower K-562 viability” and the “cell killing / viability” value (SJSA-1 cells [4]) was “cell-killing properties; also recorded: killed SJSA-1 cells”.
“LT(F2f)(R8)EY(Napa)AE(Cba)KSAA [peptide 27b-M]” was tested, and the “upregulation of MDM2 and p21” value (SJSA-1 cells [3]) was “upregulated p21 and MDM2”, the “binding to MDM2 (in words)” value (SUMO-25-109 MDM2 [2]; in solution competition) was “low nanomolar affinity” and the cell viability (MCF-7 cells) was “lowered viability for MCF-7 cells”. For the same substance, the cell viability (K-562 cells) was “did not significantly lower K-562 viability” and the “cell killing / viability” value (SJSA-1 cells [4]) was “cell-killing properties”.
LT(F2f)EHY(Hexa)AQ(Cba)TSK [peptide 10] was tested, and the “EIC peak area variation from condition (A) to (D)” value (MDM2 [5]) was 4.5 fold.
In the case of “LT(F2f)EHY(Hexa)AQ(Cba)TSK [peptide 10a]”, the “binding to MDM2 (in words)” value (SUMO-25-109 MDM2 [6]) is reported as “high affinity binder”.
In the case of “LT(F2f)EHY(Hexa)AQ(Cba)TSK [peptide 10b]”, the “binding to MDM2 (in words)” value (SUMO-25-109 MDM2 [2]; in solution competition) is reported as “low nanomolar affinity to MDM2”.
LT(F2f)EHYWAQ(Cba)TSK [peptide 11] was tested, and the “EIC peak area variation from condition (A) to (D)” value (MDM2 [5]) was 30 fold.
LT(F2f)EHYWAQ(Cba)TSK [peptide 11b] was tested, and the “binding to MDM2 (in words)” value (SUMO-25-109 MDM2 [2]; in solution competition) was “low nanomolar affinity”.
With “LT(F2f)KEY(Hexa)AQ(Cba)(K)SAA [peptide 10b-S4]” the “binding to MDM2 (in words)” value (SUMO-25-109 MDM2 [2]; in solution competition) was “weakened or abrogated binding”.
With LT(F2f)KEYWAE(Cba)KSAA [peptide 11b-S4] the “binding to MDM2 (in words)” value (SUMO-25-109 MDM2 [2]; in solution competition) was “weakened or abrogated binding”.
For LTFCys(ar)HYWAQFCys(ar)SK [peptide 61a], the “binding to MDM2 (in words)” value (SUMO-25-109 MDM2 [6]) was “substantially weaker binding compared to 60a”.
With LTFEHYWAQFTSK [peptide 5a] the “binding to MDM2 (in words)” value (SUMO-25-109 MDM2 [6]) was “nanomolar binder”.

— US11279734B2, “Solution-phase affinity selection of inhibitors from combinatorial peptide libraries” (Massachusetts Institute of Technology, priority 2017, dated 2022)
